# Results from patent US20240423908A1, “Improved Nasal Administration of Parkinson's Therapeutics” (Cyrano Therapeutics, Inc., priority 2022, published 2024).
# Key:
# Type in all cases: in vivo
# Alzheimer's disease = experiment: Treatment of Alzheimer's disease with a nasal spray composition (Example 7); settings: donepezil composition, nasal spray 3× daily in each naris
# From the text: (§1) A subject is admitted to a clinic for confusion and inability to concentrate. The subject is diagnosed with Alzheimer's disease. The subject is prescribed a donepezil composition in a nasal spray device described herein. The subject administers the nasal spray in an effective dose 3× daily in each naris. The nasal spray is characterized by a spray containing a D50 of about 15 μm to about 24 μm, a D90 of from about 30 μm to about 50 μm, and where less than about 3% of the droplets in the plume of a spray have a size of less than about 10 μm.
# Parkinson's disease = experiment: Treatment of Parkinson's disease with a nasal spray composition (Examples 4 and 6)
# From the text: as §1, with “tremors” for “confusion”, “rigid muscles.” for “inability to concentrate.”, “Parkinson's” for “Alzheimer's”, “rolipram” for “donepezil”, “2×” for “3×”
# as §1, with “bradykinesia” for “confusion”, “impaired balance.” for “inability to concentrate.”, “Parkinson's” for “Alzheimer's”, “levodopa” for “donepezil”, “4×” for “3×”
# [1] = tested on: loss of taste associated with Parkinson's disease; experiment: Treatment of chemosensory dysfunction in a Parkinson's disease patient (Example 5); settings: theophylline composition, nasal spray 2× daily in each naris
# From the text: as §1, with “loss of taste associated with Parkinson's disease.” for “confusion and inability to concentrate.”, “chemosensory dysfunction.” for “Alzheimer's disease.”, “theophylline” for “donepezil”, “2×” for “3×”
# [2] = tested on: chemosensory dysfunction associated with Parkinson's disease; experiment: Treatment of Parkinson's disease chemosensory dysfunction with intranasal theophylline (Example 9); settings: adult human male; about 0.4 ml per day of 3.1 mg/ml theophylline liquid composition, nasal spray twice daily in each naris; after 7 days
# Method: An adult human subject was treated for chemosensory dysfunction associated with Parkinson's disease. […] The subject was administered about 0.4 ml per day of a liquid composition comprising theophylline at a concentration of 3.1 mg/ml in a nasal spray device described herein. The subject administered the nasal spray twice daily in each naris.
smiles,measurement,setting,value
COc1cc2c(cc1OC)C(=O)C(CC1CCN(Cc3ccccc3)CC1)C2 (centres unmarked) [donepezil],confusion and concentration,Alzheimer's disease,reduced confusion and improved concentration
N[C@@H](Cc1ccc(O)c(O)c1)C(=O)O [levodopa],bradykinesia and balance,"Parkinson's disease; levodopa composition, nasal spray 4× daily in each naris",reduced bradykinesia and improved balance
COc1ccc(C2CNC(=O)C2)cc1OC1CCCC1 (centres unmarked) [rolipram],symptoms of Parkinson's disease,"Parkinson's disease; rolipram composition, nasal spray 2× daily in each naris","reduced symptoms (e.g., reduced tremors and reduced muscle rigidity)"
Cn1c(=O)c2[nH]cnc2n(C)c1=O [theophylline],sense of taste,[1],regains the sense of taste
same,ability to taste and smell,[2],regained their ability to taste and smell
